Calls of active or inactive are those of the source. The rule behind the calls is not given here.
What was measured:
[1] = Cell cycle arrest in human drug-sensitive MCF/WT cells assessed as accumulation at S phase at 0.3 uM after 72 hrs by propidium fluorescence flow cytometry; type: functional, cell-based
MCF/ADR [2] = test: Reduction in induction of apoptosis in SP600125 pretreated human multidrug resistant MCF/ADR cells assessed as reduction of cleavage of PARP at 0.3 uM after 48 hrs by immunoblot analysis; type: functional, cell-based
MCF/WT [3] = test: Induction of apoptosis in human drug-sensitive MCF/WT cells assessed as activation of caspase 6 at 0.3 uM by immunoblot analysis; type: functional, cell-based
[4] = Inhibition of nuclear protein kinase 2
Rhodopsin kinase GRK1 = target: T1, Rhodopsin kinase GRK1 (Homo sapiens, UniProt Q15835); test: Inhibition of rhodopsin kinase
T1 sequence (Q15835 whole entry): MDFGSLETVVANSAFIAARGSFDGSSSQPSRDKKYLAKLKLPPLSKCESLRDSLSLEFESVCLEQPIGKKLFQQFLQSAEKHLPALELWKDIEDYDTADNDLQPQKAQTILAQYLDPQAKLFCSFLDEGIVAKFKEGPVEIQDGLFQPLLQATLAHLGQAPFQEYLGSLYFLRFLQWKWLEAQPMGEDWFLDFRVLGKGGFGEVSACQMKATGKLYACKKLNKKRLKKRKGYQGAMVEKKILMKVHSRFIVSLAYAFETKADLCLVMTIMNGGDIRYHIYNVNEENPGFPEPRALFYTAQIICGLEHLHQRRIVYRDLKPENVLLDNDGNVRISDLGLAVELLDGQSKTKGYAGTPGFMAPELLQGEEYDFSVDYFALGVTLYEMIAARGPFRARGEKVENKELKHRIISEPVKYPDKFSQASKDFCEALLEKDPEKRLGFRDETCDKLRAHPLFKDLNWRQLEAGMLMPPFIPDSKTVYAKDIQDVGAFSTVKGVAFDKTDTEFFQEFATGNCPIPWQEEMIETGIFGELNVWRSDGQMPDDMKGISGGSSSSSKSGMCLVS

[5] = Cell cycle arrest in human multidrug resistant MCF/ADR cells assessed as accumulation at sub G0/G1 phase at 0.3 uM after 24 hrs by propidium fluorescence flow cytometry; type: functional, cell-based
[6] = Cell cycle arrest in human drug-sensitive MCF/WT cells assessed as accumulation at G2/M phase at 0.3 uM after 24 hrs by propidium fluorescence flow cytometry; type: functional, cell-based
[7] = Cell cycle arrest in human multidrug resistant MCF/ADR cells assessed as accumulation at G2/M phase at 0.3 uM after 72 hrs by propidium fluorescence flow cytometry; type: functional, cell-based
MCF/ADR [8] = test: Induction of apoptosis in human multidrug resistant MCF/ADR cells assessed as activation of caspase 7 at 0.3 uM by immunoblot analysis; type: functional, cell-based
MCF/ADR [9] = test: Inhibition of induction of apoptosis in human multidrug resistant MCF/ADR cells assessed as inhibition of cleavage of lamin A at 0.3 uM after 48 hrs by immunoblot analysis in presence of pan-specific inhibitor; type: functional, cell-based
[10] = target: Bcl-2-like protein 1 (Homo sapiens) (UniProt Q07817); test: Inhibition of induction of Bcl-x/s phosphorylation in human multidrug resistant MCF/ADR cells at 0.3 uM after 48 hrs in presence of rottlerin; type: functional, cell-based
MCF/ADR [11] = test: Reduction of lamin A cleavage in human multidrug resistant MCF/ADR cells transfected with c-Jun siRNA at 0.3 uM after 48 hrs by immunoblot analysis; type: functional, cell-based
[12] = Inhibition of nuclear protein kinase 1
MCF/WT [13] = test: Increase in Bcl-2 levels in human drug-sensitive MCF/WT cells at 0.3 uM by immunoblot analysis; type: functional, cell-based
MCF/ADR [14] = test: Induction of apoptosis in human multidrug resistant MCF/ADR cells assessed as activation of caspase 6 at 0.3 uM by immunoblot analysis; type: functional, cell-based
[15] = target: Transcription factor Jun (Homo sapiens) (UniProt P05412); test: Reduction in induction of phosphorylated form of c-Jun in SP600125 pretreated human multidrug resistant MCF/ADR cells at 0.3 uM after 48 hrs by immunoblot analysis; type: cell-based
[16] = Cell cycle arrest in human drug-sensitive MCF/WT cells assessed as accumulation at G0/G1 phase at 0.3 uM after 24 hrs by propidium fluorescence flow cytometry; type: functional, cell-based
[17] = Cell cycle arrest in human drug-sensitive MCF/WT cells assessed as accumulation at sub G0/G1 phase at 0.3 uM after 48 hrs by propidium fluorescence flow cytometry; type: functional, cell-based
[18] = Cell cycle arrest in human drug-sensitive MCF/WT cells assessed as accumulation at G2/M phase at 0.3 uM after 72 hrs by propidium fluorescence flow cytometry; type: functional, cell-based
MCF/WT [19] = test: Induction of apoptosis in human drug sensitive MCF/WT cells assessed as annexin V binding to phosphatidylserine at 0.3 uM after 6 hrs; type: functional, cell-based
MCF/ADR [20] = test: Induction of JNK p54 isoform phosphorylation in human multidrug resistant MCF/ADR cells at 0.3 uM after 48 hrs by immunoblot analysis; type: cell-based
[21] = Cell cycle arrest in human multidrug resistant MCF/ADR cells assessed as accumulation at G0/G1 phase at 0.3 uM after 24 hrs by propidium fluorescence flow cytometry; type: functional, cell-based
[22] = Cell cycle arrest in human multidrug resistant MCF/ADR cells assessed as accumulation at G2/M phase at 0.3 uM after 48 hrs by propidium fluorescence flow cytometry; type: functional, cell-based
MCF/ADR [23] = test: Cytocidal effect in human multidrug resistant MCF/ADR cells assessed as decrease in number of viable cells at 0.1 uM after 1 hr measured after 72 hrs in absence of drug by MTT colorimetric assay; type: functional, cell-based
[24] = Cell cycle arrest in human drug-sensitive MCF/WT cells assessed as accumulation at sub G0/G1 phase at 0.3 uM after 72 hrs by propidium fluorescence flow cytometry; type: functional, cell-based
MCF/ADR [25] = test: Induction of apoptosis in human multidrug resistant MCF/ADR cells assessed as cleavage of lamin A at 0.3 uM by immunoblot analysis; type: functional, cell-based
MCF/ADR [26] = test: Induction of apoptosis in human multidrug resistant MCF/ADR cells assessed as accumulation of PARP at 0.3 uM after 48 hrs by immunoblot analysis; type: functional, cell-based
[27] = Inhibition of PKA
MDA-MB-231 = test: Induction of apoptosis in human multidrug resistant MDA-MB-231 cells assessed as accumulation of PARP at 0.3 uM after 48 hrs by immunoblot analysis; type: functional, cell-based
MCF/WT [28] = test: Increase in wild-type full length p53 accumulation in human drug-sensitive MCF/WT cells at 0.3 uM by immunoblot analysis; type: functional, cell-based
[29] = target: c-Jun N-terminal kinase, JNK (Homo sapiens) (UniProt P45983+P53779+P45984); test: Induction of JNK phosphorylation in human multidrug resistant MCF/ADR cells transfected with PKCdelta siRNA at 0.3 uM after 48 hrs by immunocytochemical analysis; type: cell-based
MCF/WT [30] = test: Induction of apoptosis in human drug-sensitive MCF/WT cells assessed as cleavage of caspase 9 at 0.3 uM by immunoblot analysis; type: functional, cell-based
[31] = Cell cycle arrest in human drug-sensitive MCF/WT cells assessed as accumulation at S phase at 0.3 uM after 24 hrs by propidium fluorescence flow cytometry; type: functional, cell-based
MCF/ADR [32] = test: Blockade of apoptosis induction in human multidrug resistant MCF/ADR cells at 0.3 uM after 48 hrs in presence of SP600125; type: functional, cell-based

Sequence of Transcription factor Jun (Homo sapiens) (P05412 whole entry): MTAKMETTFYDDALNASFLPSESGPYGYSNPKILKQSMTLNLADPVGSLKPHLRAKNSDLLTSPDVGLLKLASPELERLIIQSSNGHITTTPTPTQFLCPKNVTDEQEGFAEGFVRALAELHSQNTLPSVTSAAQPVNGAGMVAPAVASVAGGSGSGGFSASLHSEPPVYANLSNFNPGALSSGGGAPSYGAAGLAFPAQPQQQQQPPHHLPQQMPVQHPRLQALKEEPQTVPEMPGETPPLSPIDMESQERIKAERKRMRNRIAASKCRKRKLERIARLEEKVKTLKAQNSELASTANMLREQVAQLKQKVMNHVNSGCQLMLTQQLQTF
Sequence of Bcl-2-like protein 1 (Homo sapiens) (Q07817 whole entry): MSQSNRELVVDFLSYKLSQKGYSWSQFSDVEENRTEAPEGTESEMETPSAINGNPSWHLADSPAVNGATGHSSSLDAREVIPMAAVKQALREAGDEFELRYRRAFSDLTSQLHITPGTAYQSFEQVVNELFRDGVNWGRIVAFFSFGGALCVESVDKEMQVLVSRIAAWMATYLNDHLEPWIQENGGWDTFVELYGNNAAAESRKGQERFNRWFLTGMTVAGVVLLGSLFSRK

## NC(=O)c1cn([C@@H]2O[C@H](CO)[C@@H](O)[C@H]2O)c2ncnc(N)c12 [SANGIVAMYCIN]
[1]
  Activity: 11%
MCF/ADR [2]
  Activity: Active
MCF/WT [3]
  Activity: inactive
[4]
  Ki: 100 µM
Rhodopsin kinase GRK1
  Ki: 0.18 µM
[5]
  Activity: 9%
[6]
  Activity: 28%
[7]
  Activity: 8%
MCF/ADR [8]
  Activity: Active
MCF/ADR [9]
  Activity: Active
[10]
  Activity: Active
MCF/ADR [11]
  Activity: inactive
[12]
  Ki: 200 µM
MCF/WT [13]
  Activity: Active
MCF/ADR [14]
  Activity: Active
[15]
  Activity: Active
[16]
  Activity: 48%
[17]
  Activity: 3%
[18]
  Activity: 28%
MCF/WT [19]
  Activity: inactive
MCF/ADR [20]
  Activity: Active
[21]
  Activity: 33%
[22]
  Activity: 17%
MCF/ADR [23]
  Activity: Active
[24]
  Activity: 4%
MCF/ADR [25]
  Activity: Active
MCF/ADR [26]
  Activity: Active
[27]
  IC50: 50 µM
MDA-MB-231
  Activity: Active
MCF/WT [28]
  Activity: Active
[29]
  Activity: inactive
MCF/WT [30]
  Activity: inactive
[31]
  Activity: 23%
MCF/ADR [32]
  Activity: Active

From ChEMBL document CHEMBL1156449, “The nucleoside analog sangivamycin induces apoptotic cell death in breast carcinoma MCF7/adriamycin-resistant cells via protein kinase Cdelta and JNK activation” (J Biol Chem, 2007)
